Laboratory results published in patent US11773078B2, “Furin inhibitors” (Glaxosmithkline Intellectual Property Development Limited, priority 2018, dated 2023).

Columns and labels:
[1] = target: T1, Furin (108-574-Tev-Flag-His) enzyme (Homo sapiens, UniProt P09958); experiment: Furin enzyme assay; type: biochemical; conditions: for IC50: read-out: furin enzyme pIC50 (converted)
T1 construct: Furin (108-574-Tev-Flag-His) enzyme was expressed and purified from CHO cells; TEV cleavage site (C); FLAG (C); His (C); made in house; host or cells: CHO cells
T1 sequence (P09958 108-574): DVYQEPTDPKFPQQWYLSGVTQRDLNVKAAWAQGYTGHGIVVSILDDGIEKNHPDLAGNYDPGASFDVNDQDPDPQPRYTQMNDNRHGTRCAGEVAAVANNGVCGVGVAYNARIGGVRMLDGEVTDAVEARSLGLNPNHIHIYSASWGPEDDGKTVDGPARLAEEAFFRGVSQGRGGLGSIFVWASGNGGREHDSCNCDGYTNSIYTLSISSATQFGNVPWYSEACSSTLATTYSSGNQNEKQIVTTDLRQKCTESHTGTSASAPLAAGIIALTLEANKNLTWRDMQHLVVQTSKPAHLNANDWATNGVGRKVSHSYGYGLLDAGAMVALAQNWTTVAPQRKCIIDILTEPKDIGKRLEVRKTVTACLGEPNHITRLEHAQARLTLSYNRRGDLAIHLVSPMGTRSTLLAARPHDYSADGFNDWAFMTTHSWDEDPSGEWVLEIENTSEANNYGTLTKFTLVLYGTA
Outline: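 Compounds ran as 11-point threefold dilutions (0.00017–10 μM final) against 40 pM furin, purified from CHO cells, for 2 h at room temperature. Buffer: 100 mM HEPES pH7.5 with 1 mM CaCl2 and 0.005% Triton X-100. Envision readout. Four-parameter curve gives pXC50.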

[2] = target: T2, furin (endogenous protease) in U20S cells (Homo sapiens, UniProt P09958); experiment: Furin cell-based assay (image-based, Golgi-targeted GFP with BMP10 furin/PCSK cleavage site); conditions: 24-hour incubation, read-out: furin golgi cell pXC50 (converted);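 further: Read-out is mean GFP fluorescence of Golgi puncta per cell by high-content imaging, retained when furin inhibited, over an eleven-point 0.00017–10 µM series, four-parameter fit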
T2 construct: the endogenous protease cleaves GFP; endogenous in cells; host or cells: U2OS cells transduced with a BacMam reporter
T2 sequence (P09958 108-794): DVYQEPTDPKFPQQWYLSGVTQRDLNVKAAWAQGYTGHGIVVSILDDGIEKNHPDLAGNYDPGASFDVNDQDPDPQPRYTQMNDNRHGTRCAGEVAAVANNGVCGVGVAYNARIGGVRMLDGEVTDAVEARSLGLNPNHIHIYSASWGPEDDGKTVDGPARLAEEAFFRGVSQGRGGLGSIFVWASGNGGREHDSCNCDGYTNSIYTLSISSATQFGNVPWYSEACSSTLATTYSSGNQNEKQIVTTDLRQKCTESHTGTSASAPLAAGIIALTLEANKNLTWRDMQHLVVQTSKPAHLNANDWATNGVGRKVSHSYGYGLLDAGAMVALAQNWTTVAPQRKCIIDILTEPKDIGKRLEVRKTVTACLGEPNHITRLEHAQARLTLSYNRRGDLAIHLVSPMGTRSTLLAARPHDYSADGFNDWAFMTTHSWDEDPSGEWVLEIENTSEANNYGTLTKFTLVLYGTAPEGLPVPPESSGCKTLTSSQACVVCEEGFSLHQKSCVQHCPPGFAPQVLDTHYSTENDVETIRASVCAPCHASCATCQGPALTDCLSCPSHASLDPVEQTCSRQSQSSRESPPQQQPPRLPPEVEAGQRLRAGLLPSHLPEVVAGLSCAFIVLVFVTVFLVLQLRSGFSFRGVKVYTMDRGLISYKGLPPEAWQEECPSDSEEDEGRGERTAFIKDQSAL

SMILES	IC50 [1] [nM]	EC50 [2] [nM]	furin enzyme pIC50 [1]
CNC(=O)NCC1CCN(Cc2cc(Oc3cnc(N4CCN(CCC(C)S(C)(=O)=O)CC4)nc3)nc(-c3cc(Cl)cc(Cl)c3)c2)CC1 (stereo not shown) [Example 220, 1-((1-((2-(3,5-dichlorophenyl)-6-((2-(4-(3-(methylsulfonyl)butyl)piperazin-1-yl)pyrimidin-5-yl)oxy)pyridin-4-yl)methyl)piperidin-4-yl)methyl)-3-methylurea]	0.0631	2.51	–
CNC(=O)NCC1CCN(Cc2cc(Oc3cnc(N4CCN(C5CC(C(=O)O)C5)CC4)nc3)nc(-c3cc(Cl)cc(Cl)c3)c2)CC1 (stereo not shown) [Example 221, 3-(4-(5-((6-(3,5-dichlorophenyl)-4-((4-((3-methylureido)methyl)piperidin-1-yl)methyl)pyridin-2-yl)oxy)pyrimidin-2-yl)piperazin-1-yl)cyclobutanecarboxylic acid]	–	5.01	10.4
COC(=O)NCC1CCN(Cc2cc(Oc3cnc(N4CCN(C(C)CCC(=O)O)CC4)nc3)nc(-c3cc(Cl)cc(Cl)c3)c2)CC1 (stereo not shown) [Example 222, 4-(4-(5-((6-(3,5-dichlorophenyl)-4-((4-(((methoxycarbonyl)amino)methyl)piperidin-1-yl)methyl)pyridin-2-yl)oxy)pyrimidin-2-yl)piperazin-1-yl)pentanoic acid]	–	25.1	10.2
COC(=O)NCC1CCN(Cc2cc(Oc3cnc(N4CCN(CCCS(C)(=O)=O)CC4)nc3)nc(-c3cc(Cl)cc(Cl)c3)c2)CC1 [Example 223, methyl ((1-((2-(3,5-dichlorophenyl)-6-((2-(4-(3-(methylsulfonyl)propyl)piperazin-1-yl)pyrimidin-5-yl)oxy)pyridin-4-yl)methyl)piperidin-4-yl)methyl)carbamate]	–	5.01	9.8
CN1CCN(c2ncc(Oc3cc(CN4CC[C@@H]5[C@H](CC4)[C@H]5CC(=O)O)cc(-c4cc(Cl)cc(Cl)c4)n3)cn2)CC1 [Example 224, 2-((1R,7S,8r)-4-((2-(3,5-dichlorophenyl)-6-((2-(4-methylpiperazin-1-yl)pyrimidin-5-yl)oxy)pyridin-4-yl)methyl)-4-azabicyclo[5.1.0]octan-8-yl)acetic acid]	–	7.94	8.7
CN1CCN(c2ncc(Oc3cc(CN4CCC(OC(C)(C)C(=O)O)CC4)cc(-c4cc(Cl)cc(Cl)c4)n3)cn2)CC1 [Example 225, 2-((1-((2-(3,5-dichlorophenyl)-6-((2-(4-methylpiperazin-1-yl)pyrimidin-5-yl)oxy)pyridin-4-yl)methyl)piperidin-4-yl)oxy)-2-methylpropanoic acid]	–	10	8.5
CN1CCN(c2ncc(Oc3cc(CN4CCC(CC(=O)O)CC4)cc(-c4cc(Cl)cc(Cl)c4)n3)cn2)CC(O)C1 (stereo not shown) [Example 226, 2-(1-((2-(3,5-dichlorophenyl)-6-((2-(6-hydroxy-4-methyl-1,4-diazepan-1-yl)pyrimidin-5-yl)oxy)pyridin-4-yl)methyl)piperidin-4-yl)acetic acid]	2.51	15.8	–
CN(C)C1CCN(c2ncc(Oc3cc(CN4CCC(CC(=O)O)CC4)cc(-c4cc(Cl)cc(Cl)c4)n3)cn2)CC1 [Example 227, 2-(1-((2-(3,5-dichlorophenyl)-6-((2-(4-(dimethylamino)piperidin-1-yl)pyrimidin-5-yl)oxy)pyridin-4-yl)methyl)piperidin-4-yl)acetic acid]	–	39.8	8.7
CN1C2CC1CN(c1ncc(Oc3cc(CN4CCC(CC(=O)O)CC4)cc(-c4cc(Cl)cc(Cl)c4)n3)cn1)C2 [Example 228, 2-(1-((2-(3,5-dichlorophenyl)-6-((2-(6-methyl-3,6-diazabicyclo[3.1.1]heptan-3-yl)pyrimidin-5-yl)oxy)pyridin-4-yl)methyl)piperidin-4-yl)acetic acid]	–	39.8	8.6
O=C(O)CC1CCN(Cc2cc(Oc3cnc(N4CCN(CC5(O)CC5)CC4)nc3)nc(-c3cc(Cl)cc(Cl)c3)c2)CC1 [Example 229, 2-(1-((2-(3,5-dichlorophenyl)-6-((2-(4-((1-hydroxycyclopropyl)methyl)piperazin-1-yl)pyrimidin-5-yl)oxy)pyridin-4-yl)methyl)piperidin-4-yl)acetic acid]	–	20	8.6
CCN1CCCN(c2ncc(Oc3cc(CN4CCC(CC(=O)O)CC4)cc(-c4cc(Cl)cc(Cl)c4)n3)cn2)CC1 [Example 230, 2-(1-((2-(3,5-dichlorophenyl)-6-((2-(4-ethyl-1,4-diazepan-1-yl)pyrimidin-5-yl)oxy)pyridin-4-yl)methyl)piperidin-4-yl)acetic acid]	–	10	8.6
CN1C[C@@H]2C[C@H]1CN2c1ncc(Oc2cc(CN3CCC(CC(=O)O)CC3)cc(-c3cc(Cl)cc(Cl)c3)n2)cn1 [Example 231, 2-(1-((2-(3,5-dichlorophenyl)-6-((2-((1S,4S)-5-methyl-2,5-diazabicyclo[2.2.1]heptan-2-yl)pyrimidin-5-yl)oxy)pyridin-4-yl)methyl)piperidin-4-yl)acetic acid]	–	10	8.5
CCN1C[C@@H]2C[C@H]1CN2c1ncc(Oc2cc(CN3CCC(CC(=O)O)CC3)cc(-c3cc(Cl)cc(Cl)c3)n2)cn1 [Example 232, 2-(1-((2-(3,5-dichlorophenyl)-6-((2-((1S,4S)-5-ethyl-2,5-diazabicyclo[2.2.1]heptan-2-yl)pyrimidin-5-yl)oxy)pyridin-4-yl)methyl)piperidin-4-yl)acetic acid]	–	50.1	8.9
O=C(O)CC1CCN(Cc2cc(Oc3cnc(N4CCN(C5CC5)CC4)nc3)nc(-c3cc(Cl)cc(Cl)c3)c2)CC1 [Example 233, 2-(1-((2-((2-(4-cyclopropylpiperazin-1-yl)pyrimidin-5-yl)oxy)-6-(3,5-dichlorophenyl)pyridin-4-yl)methyl)piperidin-4-yl)acetic acid]	–	100	8.2
CCN1CCN(c2ncc(Oc3cc(CN4CCC(CC(=O)O)CC4)cc(-c4cc(Cl)cc(Cl)c4)n3)cn2)CC1 [Example 234, 2-(1-((2-(3,5-Dichlorophenyl)-6-((2-(4-ethylpiperazin-1-yl)pyrimidin-5-yl)oxy)pyridin-4-yl)methyl)piperidin-4-yl)acetic acid]	–	10	10.7
CC(C)N1CCN(c2ncc(Oc3cc(CN4CCC(CC(=O)O)CC4)cc(-c4cc(Cl)cc(Cl)c4)n3)cn2)CC1 [Example 235, 2-(1-((2-(3,5-Dichlorophenyl)-6-((2-(4-isopropylpiperazin-1-yl)pyrimidin-5-yl)oxy)pyridin-4-yl)methyl)piperidin-4-yl)acetic acid]	–	15.8	9.2
O=C(O)CC1CCN(Cc2cc(Oc3cnc(N4CCN(CCF)CC4)nc3)nc(-c3cc(Cl)cc(Cl)c3)c2)CC1 [Example 236, 2-(1-((2-(3,5-Dichlorophenyl)-6-((2-(4-(2-fluoroethyl)piperazin-1-yl)pyrimidin-5-yl)oxy)pyridin-4-yl)methyl)piperidin-4-yl)acetic acid]	–	39.8	8.5
CC(O)CCN1CCN(c2ncc(Oc3cc(CN4CCC(CC(=O)O)CC4)cc(-c4cc(Cl)cc(Cl)c4)n3)cn2)CC1 (stereo not shown) [Example 237, 2-(1-((2-(3,5-Dichlorophenyl)-6-((2-(4-(3-hydroxybutyl)piperazin-1-yl)pyrimidin-5-yl)oxy)pyridin-4-yl)methyl)piperidin-4-yl)acetic acid]	–	3.16	8.7
CC(CCO)N1CCN(c2ncc(Oc3cc(CN4CCC(CC(=O)O)CC4)cc(-c4cc(Cl)cc(Cl)c4)n3)cn2)CC1 (stereo not shown) [Example 238, 2-(1-((2-(3,5-Dichlorophenyl)-6-((2-(4-(4-hydroxybutan-2-yl)piperazin-1-yl)pyrimidin-5-yl)oxy)pyridin-4-yl)methyl)piperidin-4-yl)acetic acid]	–	10	9.8
CNCCC(C)N1CCN(c2ncc(Oc3cc(CN4CCC(CC(=O)O)CC4)cc(-c4cc(Cl)cc(Cl)c4)n3)cn2)CC1 (stereo not shown) [Example 239, 2-(1-((2-(3,5-Dichlorophenyl)-6-((2-(4-(4-(methylamino)butan-2-yl)piperazin-1-yl)pyrimidin-5-yl)oxy)pyridin-4-yl)methyl)piperidin-4-yl)acetic acid]	–	25.1	8
CC(CCN(C)C)N1CCN(c2ncc(Oc3cc(CN4CCC(CC(=O)O)CC4)cc(-c4cc(Cl)cc(Cl)c4)n3)cn2)CC1 (stereo not shown) [Example 240, 2-(1-((2-(3,5-Dichlorophenyl)-6-((2-(4-(4-(dimethylamino)butan-2-yl)piperazin-1-yl)pyrimidin-5-yl)oxy)pyridin-4-yl)methyl)piperidin-4-yl)acetic acid]	–	6.31	8.4
CNC(=O)OCCN1CCN(c2ncc(Oc3cc(CN4CCC(CC(=O)O)CC4)cc(-c4cc(Cl)cc(Cl)c4)n3)cn2)CC1 [Example 241, 2-(1-((2-(3,5-Dichlorophenyl)-6-((2-(4-(2-((methylcarbamoyl)oxy)ethyl)piperazin-1-yl)pyrimidin-5-yl)oxy)pyridin-4-yl)methyl)piperidin-4-yl)acetic acid]	–	63.1	8.6
CS(=O)(=O)CCCN1CCN(c2ccc(Oc3cc(CN4CCC(CC(=O)O)CC4)cc(-c4cc(Cl)cc(Cl)c4)n3)cn2)CC1 [Example 243, 2-(1-((2-(3,5-dichlorophenyl)-6-((6-(4-(3-(methylsulfonyl)propyl)piperazin-1-yl)pyridin-3-yl)oxy)pyridin-4-yl)methyl)piperidin-4-yl)acetic acid]	–	25.1	8.7
